Assay results published in patent EP4778929A1, “NOVEL TYPE I TOPOISOMERASE INHIBITOR, AND PREPARATION METHOD THEREFOR AND USE THEREOF” (priority 2023, dated 2025).
pIC50: −log10 of the molar value.

How the values were obtained:
HCT116 cells = assay: Inhibition of cell proliferation by CTG (CellTiter-Glo) luminescence assay; assay type: cell-based; settings: Homo sapiens, HCT-116, 72 h, read-out: HCT116, IC50
Outline: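 Nine-point 1:3 dilutions applied to HCT116 cells (2 000/well, McCoy's 5a + 10 % FBS) for 72 h at 37 °C, final DMSO 0.25 %. Viability read by CellTiter-Glo luminescence; % inhibition versus DMSO controls fitted to four-parameter logistic for IC50.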

[1] = test system: Human colon cancer HCT116 cells; assay: Subcutaneous xenograft model of human colon cancer HCT-116 cells; assay type: in vivo, BALB/c nude mice; settings: day 21 post-treatment, 5 mg/kg, IV, BIW×3W
Method: Test Example 4. Pharmacodynamic Evaluation of Compound 2, Compound 250, and Compound 253 in a Subcutaneous Xenograft Model of Human Colon Cancer HCT-116 Cells in BALB/c Female Nude Mice
Human colon cancer HCT116 cells were cultured in vitro as monolayers in McCoys 5a medium supplemented with 10% fetal bovine serum and 1% penicillin/streptomycin/amphotericin B at 37 °C in a 5% CO2 incubator. Cells were routinely passaged twice a week using trypsin-EDTA digestion. When cells reached 80%-90% confluence and the required cell number was achieved, cells were harvested. HCT116 cells (0.1 mL, 5×10^6 cells) were subcutaneously inoculated into the right dorsal region near the upper forelimb of each mouse (BALB/c nude mice, female, 6-8 weeks old). Treatment was initiated when the average tumor volume reached approximately 158 mm^3. Tumor volume was measured twice weekly. At the end of the experiment, the tumor growth inhibition rate (TGI) was calculated as: TGI (%) = [1 - (average tumor volume at the end of treatment in a particular group - average tumor volume at the start of treatment in that group) / (average tumor volume at the end of treatment in the vehicle control group - average tumor volume at the start of treatment in the vehicle control group)] × 100%.
(§1) Experimental Groups and Dosing Regimen:
• 1, Vehicle control group • 2, Compound 2, 5 mg/kg, IV, BIW×3W • 3, Compound 250, 5 mg/kg, IV, BIW×3W • 4, Compound 253, 5 mg/kg, IV, BIW×3W

[2] = test system: Human colon cancer CR00090 cells; assay: CR00090 human colon cancer model (subcutaneous); assay type: in vivo, NPSG mice; settings: day 28 post-treatment, 5 mg/kg, IV, BIW×4W
Method: Test Example 5: Pharmacodynamic Evaluation of Compound 117, Compound 250, and Compound 253 in the CR00090 Human Colon Cancer Model
Human colon cancer CR00090 cells were thawed, counted, and mixed with Matrigel at a 1:1 ratio. Then, 0.1 mL (5×10^5 cells) of CR00090 cells were subcutaneously inoculated into the right dorsal region near the upper forelimb of each mouse (NPSG mice, female, 6-8 weeks old). Treatment was initiated when the average tumor volume reached approximately 84 mm^3. Tumor volume was measured twice weekly. At the end of the experiment, the tumor growth inhibition rate (TGI) was calculated as: TGI (%) = [1 - (average tumor volume at the end of treatment in a particular group - average tumor volume at the start of treatment in that group) / (average tumor volume at the end of treatment in the vehicle control group - average tumor volume at the start of treatment in the vehicle control group)] × 100%.
as §1
• 1, Vehicle control group • 2, Compound 117, 5 mg/kg, IV, BIW×4W • 3, Compound 250, 5 mg/kg, IV, BIW×4W • 4, Compound 253, 5 mg/kg, IV, BIW×4W

Row | SMILES | pIC50 (HCT116 cells) | TGI [1] [%] | tumor volume ([1]; vehicle control 1146 mm^3) [mm^3] | TGI [2] [%] | tumor volume ([2]; vehicle control 1093 mm^3) [mm^3]
1 | CC[C@@]1(O)C(=O)OCc2c1cc1n(c2=O)Cc2c-1c(=O)c1cc(F)cc(C)c1n2C [Example 2, (S)-4-ethyl-8-fluoro-4-hydroxy-10,11-dimethyl-1,12-dihydro-14H-pyrano[3,4:6,7]indolizino[2,1-b]quinoline-3,6,14(4H,11H)-trione] | > 7.70 | 81.9 | 335 |  | 
2 | CC[C@@]1(O)C(=O)OCc2c1cc1n(c2=O)Cc2c-1c(=O)c1cc(F)ccc1n2CCN(C)C1CCCC1 [Example 117] | > 7.70 |  |  | 82.4 | 262
